# Measured values published in patent publication US20240246932A1 (Merck Sharp & Dohme LLC, priority 2021, published 2024).
# Biological target: human NaV 1.8 channels stably expressed in HEK 293 cells (Homo sapiens (Human), UniProt Q9Y5Y9)
# Assay: Nav1.8 Qube automated patch-clamp assay
# Format: cell-based
# Details: human NaV1.8 in HEK 293 cells, whole-cell voltage clamp, room temperature; read-out: IC50 values (nM) for Examples in the Nav1.8 Qube Assay
# Procedure, shortened: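 Whole-cell voltage clamp at room temperature on HEK293 cells; from −90 mV, a 10 s 1 Hz train of 20 ms pulses to 10 mV (repolarising to −67 mV) was applied. Peak currents at pulses 1 and 10 gave resting- and inactivated-state inhibition; IC50 fitted by Hill equation. Internal CsF/CsCl buffer.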
# Chain of human NaV 1.8 channels stably expressed in HEK 293 cells (Q9Y5Y9 whole entry): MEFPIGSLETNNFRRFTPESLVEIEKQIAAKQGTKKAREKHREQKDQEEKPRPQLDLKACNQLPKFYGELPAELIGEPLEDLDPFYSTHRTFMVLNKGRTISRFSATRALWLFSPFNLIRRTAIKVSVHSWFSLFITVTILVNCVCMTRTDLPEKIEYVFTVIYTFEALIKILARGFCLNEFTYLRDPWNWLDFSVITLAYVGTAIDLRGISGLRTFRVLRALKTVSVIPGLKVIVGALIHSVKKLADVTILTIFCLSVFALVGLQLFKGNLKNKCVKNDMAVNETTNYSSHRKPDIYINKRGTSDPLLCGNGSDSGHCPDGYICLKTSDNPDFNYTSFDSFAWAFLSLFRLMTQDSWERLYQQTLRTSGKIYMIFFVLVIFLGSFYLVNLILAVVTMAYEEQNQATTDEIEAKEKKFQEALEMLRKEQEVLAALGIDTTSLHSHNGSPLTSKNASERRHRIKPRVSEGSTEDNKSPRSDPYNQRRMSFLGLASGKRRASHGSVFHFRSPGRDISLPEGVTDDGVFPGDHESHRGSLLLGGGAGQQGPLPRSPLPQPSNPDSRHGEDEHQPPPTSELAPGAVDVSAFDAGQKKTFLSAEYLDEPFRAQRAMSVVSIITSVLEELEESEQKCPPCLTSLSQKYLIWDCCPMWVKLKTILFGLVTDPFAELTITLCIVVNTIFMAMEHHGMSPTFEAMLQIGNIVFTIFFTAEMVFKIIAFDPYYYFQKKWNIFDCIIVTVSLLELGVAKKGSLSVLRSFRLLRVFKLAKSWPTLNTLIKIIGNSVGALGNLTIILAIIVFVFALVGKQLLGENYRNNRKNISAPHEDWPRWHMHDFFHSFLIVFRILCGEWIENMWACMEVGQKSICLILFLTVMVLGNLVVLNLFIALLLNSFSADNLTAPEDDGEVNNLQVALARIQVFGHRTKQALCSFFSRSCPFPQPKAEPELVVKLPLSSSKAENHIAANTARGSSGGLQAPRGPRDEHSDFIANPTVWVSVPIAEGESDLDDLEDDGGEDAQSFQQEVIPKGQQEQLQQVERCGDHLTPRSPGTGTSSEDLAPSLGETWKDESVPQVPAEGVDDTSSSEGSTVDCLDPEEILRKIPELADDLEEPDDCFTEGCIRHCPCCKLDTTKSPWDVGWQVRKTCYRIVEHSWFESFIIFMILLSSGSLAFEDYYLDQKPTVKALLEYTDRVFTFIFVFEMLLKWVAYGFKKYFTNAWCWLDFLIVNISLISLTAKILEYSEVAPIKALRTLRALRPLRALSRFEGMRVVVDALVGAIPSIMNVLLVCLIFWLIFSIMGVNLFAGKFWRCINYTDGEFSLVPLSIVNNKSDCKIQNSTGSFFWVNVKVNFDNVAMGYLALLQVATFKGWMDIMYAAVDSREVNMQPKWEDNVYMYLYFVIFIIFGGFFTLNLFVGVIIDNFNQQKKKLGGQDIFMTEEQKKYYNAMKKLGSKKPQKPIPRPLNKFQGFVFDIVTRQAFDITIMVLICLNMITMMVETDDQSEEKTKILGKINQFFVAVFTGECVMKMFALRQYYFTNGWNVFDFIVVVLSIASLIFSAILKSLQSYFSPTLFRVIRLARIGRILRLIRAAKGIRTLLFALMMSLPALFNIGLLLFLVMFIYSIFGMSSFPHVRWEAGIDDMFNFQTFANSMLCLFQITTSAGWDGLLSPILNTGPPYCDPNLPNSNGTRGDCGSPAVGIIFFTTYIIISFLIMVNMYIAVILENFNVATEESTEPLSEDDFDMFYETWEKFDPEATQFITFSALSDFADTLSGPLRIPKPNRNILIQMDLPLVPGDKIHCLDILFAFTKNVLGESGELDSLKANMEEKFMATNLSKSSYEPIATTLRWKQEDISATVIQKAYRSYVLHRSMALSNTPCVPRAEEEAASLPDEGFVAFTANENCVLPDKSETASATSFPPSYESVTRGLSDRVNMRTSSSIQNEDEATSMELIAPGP
row,IC50 [nM],Compound
1,128,"C[C@@H]1C(=O)NCCN1C(=O)NC(c1ccc(OCC(F)(F)F)nc1)c1ccc(F)c(F)c1 (single isomer, unassigned) [Example 6B, (2R)-N-((S or R)-(3,4-difluorophenyl)(6-(2,2,2-trifluoro-ethoxy)pyridin-3-yl)methyl)-2-methyl-3-oxopiperazine-1-carboxamide]"
2,2.88,"C[C@@H]1C(=O)NCCN1C(=O)NC(c1ccc(OC(F)(F)F)c(Cl)c1)c1cnc(C(F)(F)F)c(Cl)c1 (single isomer, unassigned) [Example 22B, (2R)-N-((S or R)-(3-chloro-4-(trifluoro-methoxy)phenyl)(5-chloro-6-(trifluoro-methyl)pyridin-3-yl)methyl)-2-methyl-3-oxopiperazine-1-carboxamide]"
3,51.4,"C[C@@H]1C(=O)NCCN1C(=O)NC(c1ccc(F)c(Cl)c1)c1ccc(F)c(OCC(F)(F)F)n1 (single isomer, unassigned) [Example 70A]"
4,209,"C[C@@H]1C(=O)NCCN1C(=O)NC(c1cnc(OCC(F)(F)F)c(F)c1)c1ccc(F)c(C(F)(F)F)n1 (single isomer, unassigned) [Example 48B]"
5,9.24,"C[C@@H]1C(=O)NCCN1C(=O)NC(c1cnc(OCC(F)(F)F)nc1)c1ccc(F)c(Cl)c1F (single isomer, unassigned) [Example 12A]"
6,73.7,"C[C@@H]1C(=O)NCCN1C(=O)NC(c1ccc(OCC(F)(F)F)nc1)c1ccc(F)c(C(F)(F)F)n1 (single isomer, unassigned) [Example 50A, (2R)-N-((R or S)-(5-fluoro-6-(trifluoro-methyl)pyridin-2-yl)(6-(2,2,2-trifluoro-ethoxy)pyridin-3-yl)methyl)-2-methyl-3-oxopiperazine-1-carboxamide]"
7,129,"C[C@@H]1C(=O)NCCN1C(=O)NC(c1ccc(OC(F)(F)F)nc1)c1ccc(F)c(C(F)(F)F)n1 (single isomer, unassigned) [Example 51A, (2R)-N-((R or S)-(5-fluoro-6-(trifluoromethyl)pyridin-2-yl)(6-(trifluoro-methoxy)pyridin-3-yl)methyl)-2-methyl-3-oxopiperazine-1-carboxamide]"
8,16.2,"C[C@@H]1C(=O)NCCN1C(=O)NC(c1cnc(C(F)(F)F)c(Cl)c1)c1csc(C(F)(F)F)n1 (single isomer, unassigned) [Example 84A, (2R)-N-((R or S)-(5-chloro-6-(trifluoromethyl)pyridin-3-yl)(2-(trifluoromethyl)thiazol-4-yl)methyl)-2-methyl-3-oxopiperazine-1-carboxamide]"
9,4.01,"C[C@@H]1C(=O)NCCN1C(=O)NC(c1ccc(OC(F)(F)F)cc1)c1cnc(C(F)(F)F)c(Cl)c1 (single isomer, unassigned) [Example 20A, (2R)-N-((R or S)-(5-chloro-6-(trifluoro-methyl)pyridin-3-yl)(4-(trifluoromethoxy)phenyl)methyl)-2-methyl-3-oxopiperazine-1-carboxamide]"
10,6.87,"C[C@@H]1C(=O)NCCN1C(=O)NC(c1ccc(F)c(Cl)c1)c1ccc(F)c(OCC(F)(F)F)n1 (single isomer, unassigned) [Example 70B]"
11,13.2,"C[C@@H]1C(=O)NCCN1C(=O)NC(c1ccc(OC(F)(F)F)nc1)c1ccc(F)c(C(F)(F)F)n1 (single isomer, unassigned) [Example 51B, (2R)-N-((S or R)-(5-fluoro-6-(trifluoro-methyl)pyridin-2-yl)(6-(trifluoromethoxy)pyridin-3-yl)methyl)-2-methyl-3-oxopiperazine-1-carboxamide]"
12,3.33,"C[C@@H]1C(=O)NCCN1C(=O)NC(c1ccc(OC2CC2)c(F)c1)c1ccc(F)c(C(F)(F)F)n1 (single isomer, unassigned) [Example 59A, (2R)-N-((R or S)-(4-cyclopropoxy-3-fluorophenyl)(5-fluoro-6-(trifluoromethyl)pyridin-2-yl)methyl)-2-methyl-3-oxopiperazine-1-carboxamide]"
13,3.6,"C[C@@H]1C(=O)NCCN1C(=O)NC(c1cccc(OC(F)(F)F)c1)c1ccc(F)c(C(F)(F)F)n1 (single isomer, unassigned) [Example 58A, (2R)-N-((R or S)-(5-fluoro-6-(trifluoro-methyl)pyridin-2-yl)(3-(trifluoromethoxy)phenyl)methyl)-2-methyl-3-oxopiperazine-1-carboxamide]"
14,5.79,"C[C@@H]1C(=O)NCCN1C(=O)NC(c1ccc(Cl)c(C#N)c1)c1ccc(F)c(C(F)(F)F)n1 (single isomer, unassigned) [Example 52A, (2R)-N-((R or S)-(4-chloro-3-cyano-phenyl)(5-fluoro-6-(trifluoromethyl)pyridin-2-yl)methyl)-2-methyl-3-oxopiperazine-1-carboxamide]"

# The remaining lines, values behind:
row,Compound,IC50 [nM]
1,"C[C@@H]1C(=O)NCCN1C(=O)NC(c1cnc(C(F)(F)F)c(Cl)c1)c1ccc(Cl)c(C#N)c1 (single isomer, unassigned) [Example 23A, (2R)-N-((R or S)-(4-chloro-3-cyano-phenyl)(5-chloro-6-(trifluoromethyl)pyridin-3-yl)methyl)-2-methyl-3-oxopiperazine-1-carboxamide]",17
2,"O=C1CN(C(=O)NC(c2ccc(Cl)c(C(F)(F)F)n2)c2ccc(F)c(Cl)c2F)CCN1 (single isomer, unassigned) [Example 78B, N-((S or R)-(3-chloro-2,4-difluorophenyl)(5-chloro-6-(trifluoro-methyl)pyridin-2-yl)methyl)-3-oxopiperazine-1-carboxamide]",3.54
3,"C[C@@H]1C(=O)NCCN1C(=O)NC(c1ccc(C#N)cc1)c1ccc(Cl)c(C(F)(F)F)n1 (single isomer, unassigned) [Example 76B]",167
4,"O=C1NCCN(C(=O)NC(c2ccc(C(F)(F)F)nc2)c2ccc(F)c(Cl)c2F)C1C1CC1 (single isomer, unassigned) [Example 38A, N—((R or S)-(3-chloro-2,4-difluorophenyl)(6-(trifluoromethyl)pyridin-3-yl)methyl)-(R)-2-cyclopropyl-3-oxopiperazine-1-carboxamide]",559
5,"C[C@@H]1C(=O)NCCN1C(=O)NC(c1ccc(C(F)(F)F)nc1)c1ccc(F)c(Cl)c1F (single isomer, unassigned) [Example 15B]",59.9
6,"C[C@@H]1C(=O)NCCN1C(=O)NC(c1ccc(C(F)(F)F)nc1)c1ccc(Cl)c(Cl)c1 (single isomer, unassigned) [Example 18A, (2R)-N-((R or S)-(3,4-dichlorophenyl)(6-(trifluoromethyl)pyridin-3-yl)methyl)-2-methyl-3-oxopiperazine-1-carboxamide]",3.89
7,"CC1(C)C(=O)NCCN1C(=O)NC(c1ccc(F)c(Cl)c1)c1cccc(C(F)(F)F)n1 (single isomer, unassigned) [Example 43, N-((R or S)-(3-chloro-4-fluorophenyl)(6-(trifluoromethyl)pyridin-2-yl)methyl)-2,2-dimethyl-3-oxopiperazine-1-carboxamide]",230
8,"C[C@@H]1C(=O)NCCN1C(=O)NC(c1cnc(C2CC2)c(Cl)c1)c1ccc(F)c(Cl)c1F (single isomer, unassigned) [Example 27B, (2R)-N-((S or R)-(3-chloro-2,4-difluorophenyl)(5-chloro-6-cyclopropylpyridin-3-yl)methyl)-2-methyl-3-oxopiperazine-1-carboxamide]",2.88
9,"C[C@@H]1C(=O)NCCN1C(=O)NC(c1cnc(C(F)(F)F)nc1)c1ccc(F)c(Cl)c1 (single isomer, unassigned) [Example 69B, (2R)-N-((S or R)-(3-chloro-4-fluorophenyl)(2-(trifluoromethyl)pyrimidin-5-yl)methyl)-2-methyl-3-oxopiperazine-1-carboxamide]",23
10,"C[C@@H]1CN(C(=O)NC(c2ccc(F)c(Cl)c2)c2cccc(C(F)(F)F)n2)CC(=O)N1 (single isomer, unassigned) [Example 46B, (3R)-N-((S or R)-(3-chloro-4-fluoro-phenyl)(6-(trifluoro-methyl)pyridin-2-yl)methyl)-3-methyl-5-oxopiperazine-1-carboxamide]",506
11,"C[C@@H]1C(=O)NCCN1C(=O)NC(c1cnc(OCC(F)(F)F)s1)c1ccc(F)c(Cl)c1F (single isomer, unassigned) [Example 13B, (2R)-N-((S or R)-(3-chloro-2,4-difluoro-phenyl)(2-(2,2,2-trifluoroethoxy)thiazol-5-yl)methyl)-2-methyl-3-oxopiperazine-1-carboxamide]",9.42
12,"O=C1NCCN(C(=O)NC(c2ccc(C(F)(F)F)nc2)c2ccc(F)c(Cl)c2F)C1C1CC1 (single isomer, unassigned) [Example 38B, N—((R or S)-(3-chloro-2,4-difluorophenyl)(6-(trifluoromethyl)pyridin-3-yl)methyl)-(S)-2-cyclopropyl-3-oxopiperazine-1-carboxamide]",2.22
13,"C[C@@H]1C(=O)NCCN1C(=O)NC(c1cnc(C(F)(F)F)nc1)c1ccc(F)c(Cl)c1 (single isomer, unassigned) [Example 69A, (2R)-N-((R or S)-(3-chloro-4-fluorophenyl)(2-(trifluoromethyl)pyrimidin-5-yl)methyl)-2-methyl-3-oxopiperazine-1-carboxamide]",136
14,"CC(C)C1C(=O)NCCN1C(=O)NC(c1ccc(C(F)(F)F)nc1)c1ccc(F)c(Cl)c1F (single isomer, unassigned) [Example 39B, N-((R or S)-(3-chloro-2,4-difluorophenyl)(6-(trifluoromethyl)pyridin-3-yl)methyl)-(S or R)-2-isopropyl-3-oxo-piperazine-1-carboxamide]",15.2
15,"C[C@H]1C(=O)NCCN1C(=O)NC(c1ccc(F)c(Cl)c1)c1cccc(C(F)(F)F)n1 (single isomer, unassigned) [Example 45, (2S)-N-((R or S)-(3-chloro-4-fluoro-phenyl)(6-(trifluoro-methyl)pyridin-2-yl)methyl)-2-methyl-3-oxopiperazine-1-carboxamide]",1700
